Laboratory results from US7396837B2, “Antitumoral analogs of lamellarins” (Pharma Mar, S.A.U., priority 2002, dated 2008).

Key:
human topoisomerase I = target: T1, human topoisomerase I (Homo sapiens, UniProt P11387); experiment: Topoisomerase I DNA relaxation assay (supercoiled plasmid DNA); assay type: biochemical; settings: supercoiled plasmid DNA, each compound tested at 1 μM, agarose gel with ethidium bromide
T1 sequence (P11387 1-765): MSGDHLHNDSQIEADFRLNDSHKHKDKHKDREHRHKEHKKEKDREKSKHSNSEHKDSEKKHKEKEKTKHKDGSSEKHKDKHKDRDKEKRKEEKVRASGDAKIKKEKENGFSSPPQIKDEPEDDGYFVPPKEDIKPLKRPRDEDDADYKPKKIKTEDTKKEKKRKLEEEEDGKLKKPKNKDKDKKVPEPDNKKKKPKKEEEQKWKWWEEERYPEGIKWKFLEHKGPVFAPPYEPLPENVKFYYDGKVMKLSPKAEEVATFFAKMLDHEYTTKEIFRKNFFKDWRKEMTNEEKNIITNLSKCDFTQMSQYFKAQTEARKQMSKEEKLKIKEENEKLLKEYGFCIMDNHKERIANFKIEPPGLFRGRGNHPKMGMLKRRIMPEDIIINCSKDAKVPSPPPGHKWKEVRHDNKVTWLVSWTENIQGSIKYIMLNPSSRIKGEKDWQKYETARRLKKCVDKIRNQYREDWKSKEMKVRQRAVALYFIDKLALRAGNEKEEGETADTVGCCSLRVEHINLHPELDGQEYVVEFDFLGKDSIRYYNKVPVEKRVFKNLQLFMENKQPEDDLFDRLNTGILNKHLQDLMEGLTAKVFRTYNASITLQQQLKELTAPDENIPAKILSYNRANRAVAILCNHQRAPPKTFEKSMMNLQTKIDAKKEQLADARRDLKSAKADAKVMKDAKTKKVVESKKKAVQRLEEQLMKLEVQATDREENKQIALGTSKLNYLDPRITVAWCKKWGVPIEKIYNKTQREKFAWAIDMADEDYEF
How it was run: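 Supercoiled plasmid DNA was relaxed by human topoisomerase I with or without test compound at 1 μM. Products were resolved by agarose gel electrophoresis with ethidium bromide staining.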

K-562 = experiment: SRB colorimetric cell growth inhibition assay, K-562; assay type: cell-based; settings: Homo sapiens
How it was run: (§1)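 Human tumour cells continuously exposed to compound in 96-well culture; growth and viability quantified colorimetrically by sulforhodamine B staining. Mean ± SD from triplicate wells; GI (growth inhibition), TGI (total growth inhibition, cytostatic) and LC (cell killing, cytotoxic) parameters derived.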

PANC-1 = experiment: SRB colorimetric cell growth inhibition assay, PANC-1; assay type: cell-based; settings: Homo sapiens
How it was run: as §1

DU-145 = experiment: SRB colorimetric cell growth inhibition assay, DU-145; assay type: cell-based; settings: Homo sapiens
How it was run: as §1

SK-BR-3 = experiment: SRB colorimetric cell growth inhibition assay, SK-BR-3; assay type: cell-based; settings: Homo sapiens
How it was run: as §1

A-549 = experiment: SRB colorimetric cell growth inhibition assay, A-549; assay type: cell-based; settings: Homo sapiens
How it was run: as §1

HT-29 = experiment: SRB colorimetric cell growth inhibition assay, HT-29; assay type: cell-based; settings: Homo sapiens
How it was run: as §1

LoVo = experiment: SRB colorimetric cell growth inhibition assay, LoVo; assay type: cell-based; settings: Homo sapiens, LoVo
How it was run: as §1

LoVo-Dox = experiment: SRB colorimetric cell growth inhibition assay, LoVo-Dox (MDR); assay type: cell-based; settings: Homo sapiens
How it was run: as §1

IGROV = experiment: SRB colorimetric cell growth inhibition assay, IGROV; assay type: cell-based; settings: Homo sapiens, IGROV
How it was run: as §1

LNCaP = experiment: SRB colorimetric cell growth inhibition assay, LNCaP; assay type: cell-based; settings: Homo sapiens, LNCaP
How it was run: as §1

IGROV-ET = experiment: SRB colorimetric cell growth inhibition assay, IGROV-ET (ET-743 resistant); assay type: cell-based; settings: Homo sapiens
How it was run: as §1

SK-MEL-28 = experiment: SRB colorimetric cell growth inhibition assay, SK-MEL-28; assay type: cell-based; settings: Homo sapiens
How it was run: as §1

COc1cc(-c2c3c4cc(OC)c(O)cc4oc(=O)c3n3ccc4cc(O)c(OC)cc4c23)ccc1O [Compound 3, lamellarin D, reference compound]
stimulation of DNA cleavage by topoisomerase I / inhibition of topoisomerase I (nicked DNA band) in DNA relaxation assay (human topoisomerase I): significantly amplified
GI50 (K-562; K562, K-562, GI=growth inhibition, read-out: GI50 K-562): 86.9 nM
IC (TGI) (K-562; K562, K-562, total growth inhibition (cytostatic effect), read-out: TGI K-562): 791 nM
CC50 (K-562; K562, read-out: LC50 K-562, K-562, cell killing (cytotoxic effect)): 8150 nM
GI50 (PANC-1; PANC-1, PANC-1, GI=growth inhibition, read-out: GI50 PANC-1): 248 nM
IC (TGI) (PANC-1; PANC-1, PANC-1, total growth inhibition (cytostatic effect), read-out: TGI PANC-1): 2200 nM
CC50 (PANC-1; PANC-1, read-out: LC50 PANC-1, PANC-1, cell killing (cytotoxic effect)): 20000 nM
GI50 (DU-145; DU-145, DU-145, GI=growth inhibition, read-out: GI50 DU-145): 19 nM
IC (TGI) (DU-145; DU-145, DU-145, total growth inhibition (cytostatic effect), read-out: TGI DU-145): 79.7 nM
CC50 (DU-145; DU-145, read-out: LC50 DU-145, DU-145, cell killing (cytotoxic effect)): 20000 nM
GI50 (SK-BR-3; SK-BR-3, SK-BR-3, GI=growth inhibition, read-out: GI50 SK-BR-3): 106 nM
IC (TGI) (SK-BR-3; SK-BR-3, SK-BR-3, total growth inhibition (cytostatic effect), read-out: TGI SK-BR-3): 767 nM
CC50 (SK-BR-3; SK-BR-3, read-out: LC50 SK-BR-3, SK-BR-3, cell killing (cytotoxic effect)): 7690 nM
GI50 (A-549; A549, A-549, GI=growth inhibition, read-out: GI50 A-549): 20.4 nM
IC (TGI) (A-549; A549, A-549, total growth inhibition (cytostatic effect), read-out: TGI A-549): 1140 nM
CC50 (A-549; A549, read-out: LC50 A-549, A-549, cell killing (cytotoxic effect)): 15500 nM
GI50 (HT-29; HT-29, HT-29, GI=growth inhibition, read-out: GI50 HT-29): 5330 nM
IC (TGI) (HT-29; HT-29, HT-29, total growth inhibition (cytostatic effect), read-out: TGI HT-29): 19000 nM
CC50 (HT-29; HT-29, read-out: LC50 HT-29, HT-29, cell killing (cytotoxic effect)): 20000 nM
CC50 (LoVo; read-out: LC50 LOVO, LOVO, cell killing (cytotoxic effect)): 2000 nM
GI50 (LoVo; GI=growth inhibition, read-out: GI50 LOVO): 398 nM
IC (TGI) (LoVo; total growth inhibition (cytostatic effect), read-out: TGI LOVO): 965 nM
GI50 (LoVo-Dox; LOVO-DOX, GI=growth inhibition, read-out: GI50 LOVO-DOX): 420 nM
IC (TGI) (LoVo-Dox; LOVO-DOX, total growth inhibition (cytostatic effect), read-out: TGI LOVO-DOX): 1670 nM
CC50 (LoVo-Dox; read-out: LC50 LOVO-DOX, LOVO-DOX, cell killing (cytotoxic effect)): 20000 nM
CC50 (IGROV; read-out: LC50 IGROV, IGROV, cell killing (cytotoxic effect)): 20000 nM
GI50 (IGROV; GI=growth inhibition, read-out: GI50 IGROV): 236 nM
IC (TGI) (IGROV; total growth inhibition (cytostatic effect), read-out: TGI IGROV): 1060 nM
GI50 (LNCaP; LN-caP, GI=growth inhibition, read-out: GI50 LN-caP): 123 nM
IC (TGI) (LNCaP; LN-caP, total growth inhibition (cytostatic effect), read-out: TGI LN-caP): 398 nM
CC50 (LNCaP; read-out: LC50 LN-caP, LN-caP, cell killing (cytotoxic effect)): 1060 nM
GI50 (IGROV-ET; IGROV-ET, GI=growth inhibition, read-out: GI50 IGROV-ET): 214 nM
IC (TGI) (IGROV-ET; IGROV-ET, total growth inhibition (cytostatic effect), read-out: TGI IGROV-ET): 1160 nM
CC50 (IGROV-ET; read-out: LC50 IGROV-ET, IGROV-ET, cell killing (cytotoxic effect)): 20000 nM
GI50 (SK-MEL-28; SK-MEL-28, MEL-28, GI=growth inhibition, read-out: GI50 MEL-28): 88.1 nM
IC (TGI) (SK-MEL-28; SK-MEL-28, MEL-28, total growth inhibition (cytostatic effect), read-out: TGI MEL-28): 1770 nM
CC50 (SK-MEL-28; SK-MEL-28, read-out: LC50 MEL-28, MEL-28, cell killing (cytotoxic effect)): 11300 nM
